Results published in ChEMBL document CHEMBL4145553, “Design, synthesis, and biological evaluation of novel amide and hydrazide based thioether analogs targeting Histone deacteylase (HDAC) enzymes” (Eur J Med Chem, 2018).

What was measured:
[1] = system: SR; assay: Growth inhibition of human SR cells assessed as cell growth at 10^-7 M incubated for 48 hrs by sulforhodamine B assay relative to control; format: functional; conditions: read-out: Activity
[2] = system: M14; assay: Growth inhibition of human M14 cells assessed as cell growth at 10^-6 M incubated for 48 hrs by sulforhodamine B assay relative to control; format: functional; conditions: M14, 48 h, read-out: Activity
[3] = system: OVCAR-8; assay: Growth inhibition of human OVCAR8 cells assessed as cell growth at 10^-4 M incubated for 48 hrs by sulforhodamine B assay relative to control; format: functional; conditions: OVCAR-8, 48 h, read-out: Activity
[4] = system: SNB-75; assay: Growth inhibition of human SNB75 cells assessed as cell growth at 10^-6 M incubated for 48 hrs by sulforhodamine B assay relative to control; format: functional; conditions: SNB-75, 48 h, read-out: Activity
[5] = system: 786-0; assay: Growth inhibition of human 786-0 cells assessed as cell growth at 10^-8 M incubated for 48 hrs by sulforhodamine B assay relative to control; format: functional; conditions: 786-0, 48 h, read-out: Activity
[6] = system: MDA-MB-468; assay: Growth inhibition of human MDA-MB-468 cells incubated for 48 hrs by sulforhodamine B assay; format: functional; conditions: MDA-MB-468, 48 h
[7] = system: SF-295; assay: Growth inhibition of human SF295 cells incubated for 48 hrs by sulforhodamine B assay; format: functional; conditions: SF-295, 48 h
[8] = system: HCT-15; assay: Growth inhibition of human HCT15 cells incubated for 48 hrs by sulforhodamine B assay; format: functional; conditions: HCT-15, 48 h
[9] = system: HCC 2998; assay: Growth inhibition of human HCC2998 cells assessed as cell growth at 10^-8 M incubated for 48 hrs by sulforhodamine B assay relative to control; format: functional; conditions: HCC 2998, 48 h, read-out: Activity
[10] = system: MDA-MB-435; assay: Growth inhibition of human MDA-MB-435 cells assessed as cell growth at 10^-8 M incubated for 48 hrs by sulforhodamine B assay relative to control; format: functional; conditions: MDA-MB-435, 48 h, read-out: Activity
[11] = system: COLO 205; assay: Growth inhibition of human COLO205 cells incubated for 48 hrs by sulforhodamine B assay; format: functional; conditions: COLO 205, 48 h
[12] = system: BT-549; assay: Growth inhibition of human BT549 cells assessed as cell growth at 10^-8 M incubated for 48 hrs by sulforhodamine B assay relative to control; format: functional; conditions: BT-549, 48 h, read-out: Activity
[13] = system: SF-295; assay: Growth inhibition of human SF295 cells assessed as cell growth at 10^-6 M incubated for 48 hrs by sulforhodamine B assay relative to control; format: functional; conditions: SF-295, 48 h, read-out: Activity
[14] = system: RXF 393; assay: Growth inhibition of human RXF393 cells assessed as cell growth at 10^-7 M incubated for 48 hrs by sulforhodamine B assay relative to control; format: functional; conditions: RXF 393, 48 h, read-out: Activity
[15] = system: KM12; assay: Growth inhibition of human KM12 cells assessed as cell growth at 10^-4 M incubated for 48 hrs by sulforhodamine B assay relative to control; format: functional; conditions: KM12, 48 h, read-out: Activity
[16] = system: MOLT-4; assay: Growth inhibition of human MOLT4 cells incubated for 48 hrs by sulforhodamine B assay; format: functional; conditions: MOLT-4, 48 h
[17] = system: SF-268; assay: Growth inhibition of human SF268 cells assessed as cell growth at 10^-7 M incubated for 48 hrs by sulforhodamine B assay relative to control; format: functional; conditions: SF-268, 48 h, read-out: Activity
[18] = system: MDA-MB-468; assay: Growth inhibition of human MDA-MB-468 cells assessed as cell growth at 10^-8 M incubated for 48 hrs by sulforhodamine B assay relative to control; format: functional; conditions: MDA-MB-468, 48 h, read-out: Activity
[19] = system: SK-MEL-28; assay: Growth inhibition of human SK-MEL-28 cells assessed as cell growth at 10^-5 M incubated for 48 hrs by sulforhodamine B assay relative to control; format: functional; conditions: SK-MEL-28, 48 h, read-out: Activity
[20] = system: MOLT-4; assay: Growth inhibition of human MOLT4 cells assessed as cell growth at 10^-4 M incubated for 48 hrs by sulforhodamine B assay relative to control; format: functional; conditions: MOLT-4, 48 h, read-out: Activity
[21] = system: U-251; assay: Growth inhibition of human U251 cells assessed as cell growth at 10^-5 M incubated for 48 hrs by sulforhodamine B assay relative to control; format: functional; conditions: U-251, 48 h, read-out: Activity
[22] = target: Histone deacetylase 1 (Homo sapiens, UniProt Q13547); assay: Inhibition of human HDAC1 by ELISA
[23] = system: HCT-15; assay: Growth inhibition of human HCT15 cells assessed as cell growth at 10^-6 M incubated for 48 hrs by sulforhodamine B assay relative to control; format: functional; conditions: HCT-15, 48 h, read-out: Activity
[24] = system: SK-OV-3; assay: Growth inhibition of human SKOV3 cells assessed as cell growth at 10^-8 M incubated for 48 hrs by sulforhodamine B assay relative to control; format: functional; conditions: SK-OV-3, 48 h, read-out: Activity
[25] = system: SK-MEL-5; assay: Growth inhibition of human SK-MEL-5 cells incubated for 48 hrs by sulforhodamine B assay; format: functional; conditions: SK-MEL-5, 48 h
[26] = system: 786-0; assay: Growth inhibition of human 786-0 cells assessed as cell growth at 10^-7 M incubated for 48 hrs by sulforhodamine B assay relative to control; format: functional; conditions: 786-0, 48 h, read-out: Activity
[27] = system: HL-60; assay: Downregulation of HDAC2 mRNA expression in human HL60 cells by qRT-PCR method relative to control; format: functional
[28] = system: MDA-MB-435; assay: Antiproliferative activity against human MDA-MB-435 cells after 24 hrs by MTT assay; format: functional
[29] = system: CAKI-1; assay: Growth inhibition of human Caki1 cells incubated for 48 hrs by sulforhodamine B assay; format: functional; conditions: CAKI-1, 48 h
[30] = read-out: LC50 (the source's name)
[31] = read-out: pLC50 (the source's name) (converted)

Chain of Histone deacetylase 1 (Q13547 whole entry): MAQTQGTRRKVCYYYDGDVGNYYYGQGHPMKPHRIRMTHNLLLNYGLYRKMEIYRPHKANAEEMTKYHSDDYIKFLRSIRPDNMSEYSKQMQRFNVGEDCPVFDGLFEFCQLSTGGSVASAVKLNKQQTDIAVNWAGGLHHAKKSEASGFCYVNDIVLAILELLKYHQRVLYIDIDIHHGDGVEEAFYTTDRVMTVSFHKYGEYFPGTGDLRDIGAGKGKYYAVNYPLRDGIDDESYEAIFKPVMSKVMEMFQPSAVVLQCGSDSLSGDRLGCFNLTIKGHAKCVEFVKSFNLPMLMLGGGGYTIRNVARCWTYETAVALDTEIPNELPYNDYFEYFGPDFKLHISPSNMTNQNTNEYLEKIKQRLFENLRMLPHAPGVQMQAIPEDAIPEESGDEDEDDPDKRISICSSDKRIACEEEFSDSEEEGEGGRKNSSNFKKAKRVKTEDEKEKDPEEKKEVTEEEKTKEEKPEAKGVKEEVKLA

CCS/C(Nc1ccccc1)=C(\C#N)C(=O)Nc1ccc(OC)cc1
growth at 0.1 µM [1]: 85%
growth at 1 µM [2]: 72%
growth at 100 µM [3]: 10%
growth at 1 µM [4]: 81%
growth at 0.01 µM [5]: 97%
GI50 ([6]; read-out: GI50): 1.39 µM
CC50 [6, 30]: > 100 µM
TGI ([6]; read-out: TGI): 7.51 µM
GI50 ([6]; read-out: pGI50 (converted)): 1.38 µM
CC50 [6, 31]: > 100 µM
TGI ([6]; read-out: pTGI (converted)): 7.59 µM
GI50 ([7]; read-out: GI50): 3.06 µM
CC50 [7, 30]: > 100 µM
TGI ([7]; read-out: TGI): > 100 µM
GI50 ([7]; read-out: pGI50 (converted)): 3.09 µM
CC50 [7, 31]: > 100 µM
TGI ([7]; read-out: pTGI): > 100 µM
GI50 ([8]; read-out: GI50): 1.19 µM
CC50 [8, 30]: > 100 µM
TGI ([8]; read-out: TGI): > 100 µM
GI50 ([8]; read-out: pGI50 (converted)): 1.2 µM
CC50 [8, 31]: > 100 µM
TGI ([8]; read-out: pTGI): > 100 µM
growth at 0.01 µM [9]: 102%
growth at 0.01 µM [10]: 100%
GI50 ([11]; read-out: GI50): 3.06 µM
CC50 [11, 30]: > 100 µM
TGI ([11]; read-out: TGI): 11.2 µM
GI50 ([11]; read-out: pGI50 (converted)): 3.09 µM
CC50 [11, 31]: > 100 µM
TGI ([11]; read-out: pTGI (converted)): 11.2 µM
growth at 0.01 µM [12]: 98%
growth at 1 µM [13]: 82%
growth at 0.1 µM [14]: 100%
growth at 100 µM [15]: 7%
GI50 ([16]; read-out: GI50): 2.61 µM
CC50 [16, 30]: > 100 µM
TGI ([16]; read-out: TGI): > 100 µM
GI50 ([16]; read-out: pGI50 (converted)): 2.63 µM
CC50 [16, 31]: > 100 µM
TGI ([16]; read-out: pTGI): > 100 µM
growth at 0.1 µM [17]: 97%
growth at 0.01 µM [18]: 105%
growth at 10 µM [19]: 53%
growth at 100 µM [20]: 18%
growth at 10 µM [21]: 26%
IC50 [22]: 0.038 µM
growth at 1 µM [23]: 53%
growth at 0.01 µM [24]: 103%
GI50 ([25]; read-out: GI50): 2.2 µM
CC50 [25, 30]: 68.2 µM
TGI ([25]; read-out: TGI): 8.19 µM
GI50 ([25]; read-out: pGI50 (converted)): 2.19 µM
CC50 [25, 31]: 67.6 µM
TGI ([25]; read-out: pTGI (converted)): 8.13 µM
growth at 0.1 µM [26]: 86%
fold change (FC) [27]: <=10
Activity [28]: Dose-dependent effect
GI50 ([28]; Homo sapiens, MDA-MB-435, 24 h): 0.37 µM
GI50 ([29]; read-out: GI50): 3.39 µM
CC50 [29, 30]: > 100 µM
TGI ([29]; read-out: TGI): > 100 µM
GI50 ([29]; read-out: pGI50 (converted)): 3.39 µM
CC50 [29, 31]: > 100 µM
TGI ([29]; read-out: pTGI): > 100 µM
